According to PubChem BioAssay (NCI):
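Interpolation was linear, between the two tested concentrations surrounding the appropriate level; five concentrations were tested over 48 hours in 96-well plates. GI50 = concentration required for 50% inhibition of growth. TGI denotes the concentration required for complete inhibition of growth.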

Assays:
Assay in all cases: NCI anticancer screen, dose series, 48 h
RPMI-8226 leukemia = system: RPMI-8226 leukemia
UO-31 renal = system: UO-31 renal
SK-MEL-28 melanoma = system: SK-MEL-28 melanoma
COLO 205 colon = system: COLO 205 colon
MALME-3M melanoma = system: MALME-3M melanoma
DU-145 prostate = system: DU-145 prostate
SW-620 colon = system: SW-620 colon
SK-MEL-5 melanoma = system: SK-MEL-5 melanoma
HL-60(TB) leukemia = system: HL-60(TB) leukemia
RXF 393 renal = system: RXF 393 renal
HS 578T breast = system: HS 578T breast
SN12C renal = system: SN12C renal
ACHN renal = system: ACHN renal
SF-295 CNS = system: SF-295 CNS
TK-10 renal = system: TK-10 renal
NCI-H522 lung = system: NCI-H522 lung
UACC-62 melanoma = system: UACC-62 melanoma
U251 CNS = system: U251 CNS
MDA-MB-231 breast = system: MDA-MB-231 breast
NCI-H226 lung = system: NCI-H226 lung
IGROV1 ovarian = system: IGROV1 ovarian
M14 melanoma = system: M14 melanoma
CCRF-CEM leukemia = system: CCRF-CEM leukemia
HCT-116 colon = system: HCT-116 colon
A498 renal = system: A498 renal
SK-OV-3 ovarian = system: SK-OV-3 ovarian
OVCAR-5 ovarian = system: OVCAR-5 ovarian
SNB-75 CNS = system: SNB-75 CNS
NCI-H460 lung = system: NCI-H460 lung
SNB-19 CNS = system: SNB-19 CNS
CAKI-1 renal = system: CAKI-1 renal
K-562 leukemia = system: K-562 leukemia
HOP-92 NSCLC = system: HOP-92 NSCLC
KM12 colon = system: KM12 colon
OVCAR-4 ovarian = system: OVCAR-4 ovarian
NCI-H23 lung = system: NCI-H23 lung
SK-MEL-2 melanoma = system: SK-MEL-2 melanoma
T-47D breast = system: T-47D breast
HOP-62 NSCLC = system: HOP-62 NSCLC
BT-549 breast = system: BT-549 breast
MCF7 breast = system: MCF7 breast
SF-268 CNS = system: SF-268 CNS
MOLT-4 leukemia = system: MOLT-4 leukemia
786-0 renal = system: 786-0 renal
EKVX NSCLC = system: EKVX NSCLC
OVCAR-8 ovarian = system: OVCAR-8 ovarian
NCI/ADR-RES ovarian = system: NCI/ADR-RES ovarian
UACC-257 melanoma = system: UACC-257 melanoma
OVCAR-3 ovarian = system: OVCAR-3 ovarian
A549 NSCLC = system: A549 NSCLC
HCT-15 colon = system: HCT-15 colon
PC-3 prostate = system: PC-3 prostate
LOX IMVI melanoma = system: LOX IMVI melanoma
MDA-MB-435 = system: MDA-MB-435
SR leukemia = system: SR leukemia
HT29 colon = system: HT29 colon
SF-539 CNS = system: SF-539 CNS

SMILES: O=[N+]([O-])c1cc([N+](=O)[O-])c(NN=C(c2ccc(O)cc2)c2ccc(O)cc2)cc1Cl
- GI50 (RPMI-8226 leukemia): 1980 nM
- TGI (RPMI-8226 leukemia): 4070 nM
- GI50 (UO-31 renal): 1760 nM
- TGI (UO-31 renal): 3390 nM
- GI50 (SK-MEL-28 melanoma): 685 nM
- TGI (SK-MEL-28 melanoma): 1730 nM
- GI50 (COLO 205 colon): 2400 nM
- TGI (COLO 205 colon): 5310 nM
- GI50 (MALME-3M melanoma): 1970 nM
- TGI (MALME-3M melanoma): 3980 nM
- GI50 (DU-145 prostate): 1140 nM
- TGI (DU-145 prostate): 2640 nM
- GI50 (SW-620 colon): 348 nM
- TGI (SW-620 colon): 1220 nM
- GI50 (SK-MEL-5 melanoma): 1470 nM
- TGI (SK-MEL-5 melanoma): 2910 nM
- GI50 (HL-60(TB) leukemia): 684 nM
- TGI (HL-60(TB) leukemia): 2420 nM
- TGI (RXF 393 renal): 350 nM
- GI50 (HS 578T breast): 742 nM
- TGI (HS 578T breast): 2040 nM
- GI50 (SN12C renal): 1780 nM
- TGI (SN12C renal): 3360 nM
- GI50 (ACHN renal): 1880 nM
- TGI (ACHN renal): 3450 nM
- GI50 (SF-295 CNS): 1840 nM
- TGI (SF-295 CNS): 3650 nM
- GI50 (TK-10 renal): 2260 nM
- TGI (TK-10 renal): 4660 nM
- GI50 (NCI-H522 lung): 2000 nM
- TGI (NCI-H522 lung): 4220 nM
- GI50 (UACC-62 melanoma): 1760 nM
- TGI (UACC-62 melanoma): 3280 nM
- GI50 (U251 CNS): 1870 nM
- TGI (U251 CNS): 3550 nM
- GI50 (MDA-MB-231 breast): 1740 nM
- TGI (MDA-MB-231 breast): 3290 nM
- GI50 (NCI-H226 lung): 2010 nM
- TGI (NCI-H226 lung): 3840 nM
- GI50 (IGROV1 ovarian): 449 nM
- TGI (IGROV1 ovarian): 1570 nM
- GI50 (M14 melanoma): 1830 nM
- TGI (M14 melanoma): 3940 nM
- GI50 (CCRF-CEM leukemia): 716 nM
- TGI (CCRF-CEM leukemia): 2290 nM
- GI50 (HCT-116 colon): 1230 nM
- TGI (HCT-116 colon): 3110 nM
- GI50 (A498 renal): 2020 nM
- TGI (A498 renal): 3640 nM
- GI50 (SK-OV-3 ovarian): 2040 nM
- TGI (SK-OV-3 ovarian): 4150 nM
- GI50 (OVCAR-5 ovarian): 2200 nM
- TGI (OVCAR-5 ovarian): 4150 nM
- GI50 (SNB-75 CNS): 1440 nM
- TGI (SNB-75 CNS): 3080 nM
- GI50 (NCI-H460 lung): 1920 nM
- TGI (NCI-H460 lung): 4000 nM
- GI50 (SNB-19 CNS): 366 nM
- TGI (SNB-19 CNS): 2300 nM
- GI50 (CAKI-1 renal): 1700 nM
- TGI (CAKI-1 renal): 3340 nM
- GI50 (K-562 leukemia): 4890 nM
- TGI (K-562 leukemia): > 100000 nM
- GI50 (HOP-92 NSCLC): 463 nM
- TGI (HOP-92 NSCLC): 2480 nM
- GI50 (KM12 colon): 1830 nM
- TGI (KM12 colon): 3730 nM
- GI50 (OVCAR-4 ovarian): 1400 nM
- TGI (OVCAR-4 ovarian): 2950 nM
- GI50 (NCI-H23 lung): 1980 nM
- TGI (NCI-H23 lung): 4450 nM
- GI50 (SK-MEL-2 melanoma): 3060 nM
- TGI (SK-MEL-2 melanoma): 10600 nM
- GI50 (T-47D breast): 572 nM
- TGI (T-47D breast): 2120 nM
- GI50 (HOP-62 NSCLC): 2440 nM
- TGI (HOP-62 NSCLC): 4990 nM
- GI50 (BT-549 breast): 2080 nM
- TGI (BT-549 breast): 4460 nM
- GI50 (MCF7 breast): 1370 nM
- TGI (MCF7 breast): 3300 nM
- GI50 (SF-268 CNS): 1700 nM
- TGI (SF-268 CNS): 3290 nM
- GI50 (MOLT-4 leukemia): 832 nM
- TGI (MOLT-4 leukemia): 3110 nM
- GI50 (786-0 renal): 2150 nM
- TGI (786-0 renal): 4260 nM
- GI50 (EKVX NSCLC): 2330 nM
- TGI (EKVX NSCLC): 5100 nM
- GI50 (OVCAR-8 ovarian): 1790 nM
- TGI (OVCAR-8 ovarian): 4600 nM
- GI50 (NCI/ADR-RES ovarian): 1890 nM
- TGI (NCI/ADR-RES ovarian): 3890 nM
- GI50 (UACC-257 melanoma): 2170 nM
- TGI (UACC-257 melanoma): 3890 nM
- GI50 (OVCAR-3 ovarian): 912 nM
- TGI (OVCAR-3 ovarian): 2240 nM
- GI50 (A549 NSCLC): 2840 nM
- TGI (A549 NSCLC): 6590 nM
- GI50 (HCT-15 colon): 407 nM
- TGI (HCT-15 colon): 1520 nM
- GI50 (PC-3 prostate): 813 nM
- TGI (PC-3 prostate): 2330 nM
- GI50 (LOX IMVI melanoma): 409 nM
- TGI (LOX IMVI melanoma): 1600 nM
- GI50 (MDA-MB-435): 1820 nM
- TGI (MDA-MB-435): 3600 nM
- GI50 (SR leukemia): 1680 nM
- GI50 (HT29 colon): 1540 nM
- TGI (HT29 colon): 4070 nM
- GI50 (SF-539 CNS): 1750 nM
- TGI (SF-539 CNS): 3130 nM
